Data from patent US20250114460A1, “NOVEL PLK1 DEGRADATION INDUCING COMPOUND” (UPPTHERA, INC., priority 2021, published 2025).

Target: T1, PLK1 (Homo sapiens, UniProt P53350)
T1 construct: endogenous in cells; host or cells: HeLa LgBit (Plk1-HiBit KI): HeLa stably expressing LgBit, with a CRISPR/Cas9 knock-in of HiBit at the endogenous PLK1 locus
Assay: Luciferase assay for PLK1 in HeLa LgBit (Plk1-HiBit KI) cell line
Type: cell-based
Settings: 300 nM compound, luminescence after 9 hours
Protocol: 2. Luciferase Assay for PLK1
(1) Preparation and Culture of HeLa LgBit (Plk1-HiBit KI) Cell Line
A HeLa cell line in which the LgBit vector was transfected and expressed stably was prepared. Then, after constructing gRNA and donor to express the HiBit amino acid sequence behind the C-terminal of the Plk1 gene, which was inherent in the cell, it was inserted into the cell together with a vector capable of expressing CRISPR/Cas9. Only the cells in which the insertion was completed and knock-in had progressed were selected, sub-cultured and used.
(2) Treatment of Compounds of the Present Invention and Method of Luciferase Assay
In the case of HeLa LgBit (Plk1-HiBit KI), the compounds were treated after being released after thymidine block, and the process was as follows. Thymidine (Sigma-Aldrich Cat. No. T9250-5G) was completely dissolved in DW and used in the experiment. For thymidine block, the products were treated with 2 mM of thymidine and then incubated for 24 hours. For release and chemical treatment, the medium was suctioned and washed with 1×PBS. TrypLE™ was added and incubated in 37° C. CO2 incubator for 5 min. Cells neutralized by adding complete media were counted through a counter. For each well of a 96-well culture plate (SPL), 3.3×10^4 cells and a total medium volume of 150 μL were seeded and incubated in a CO2 incubator.
Each cell line was incubated in a CO2 incubator for 18 hours, and Endurazine was added to each well to make up 4% of the total volume. After adding the compound of the present invention in a 96-well white plate (SPL) to a concentration of 300 nM, the wavelength of the plate reader (BMG Labtech, CLARIOstar Plus) was set to […], and then the luminescence was tracked in real time.
In Table 2, Activity represents the ratio of the luminescense value of each Exemplary Compound treatment group to DMSO treatment group (+++: <0.3, ++<0.6, +<0.7).

T1 sequence (P53350 whole entry): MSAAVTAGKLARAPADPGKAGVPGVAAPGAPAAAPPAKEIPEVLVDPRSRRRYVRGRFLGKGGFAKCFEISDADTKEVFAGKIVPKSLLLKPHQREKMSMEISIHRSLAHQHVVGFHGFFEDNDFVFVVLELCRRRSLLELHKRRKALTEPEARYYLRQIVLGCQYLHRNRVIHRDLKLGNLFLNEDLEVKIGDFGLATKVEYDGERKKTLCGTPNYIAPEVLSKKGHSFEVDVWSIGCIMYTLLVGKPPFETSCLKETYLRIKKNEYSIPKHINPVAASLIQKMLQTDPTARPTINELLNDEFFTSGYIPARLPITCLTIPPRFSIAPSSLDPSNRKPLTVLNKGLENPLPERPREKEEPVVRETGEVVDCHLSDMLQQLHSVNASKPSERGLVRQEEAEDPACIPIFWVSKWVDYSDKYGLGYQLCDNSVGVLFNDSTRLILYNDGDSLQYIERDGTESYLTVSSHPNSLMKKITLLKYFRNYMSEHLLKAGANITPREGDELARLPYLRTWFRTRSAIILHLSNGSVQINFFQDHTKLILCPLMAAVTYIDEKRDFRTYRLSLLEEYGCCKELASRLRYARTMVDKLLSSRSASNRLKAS

Row | SMILES | Activity: ratio of the luminescense value of each Exemplary Compound treatment group to DMSO treatment group
1 | COc1cc(C(=O)NN2CCC(N3CC4(CCN(c5ccc6c(c5)C(=O)N(C5CCC(=O)NC5=O)C6=O)CC4)C3)CC2)ccc1Nc1ncc2c(n1)N(C(C)C)CC(F)(F)C(=O)N2C (centres unmarked) [Compound 214, 4-((7,7-difluoro-9-isopropyl-5-methyl-6-oxo-6,7,8,9-tetrahydro-5H-pyrimido[4,5-b][1,4]diazepin-2-yl)amino)-N-(4-(7-(2-(2,6-dioxopiperidin-3-yl)-1,3-dioxoisoindolin-5-yl)-2,7-diazaspiro[3.5]nonan-2-yl)piperidin-1-yl)-3-methoxybenzamide] | + (+<0.7)
2 | CN1C(=O)C(F)(F)CN(C2CCCC2)c2nc(Nc3ccc(C(=O)NC4CCN(C(=O)CCCNc5cccc6c5C(=O)N(C5CCC(=O)NC5=O)C6=O)CC4)cc3F)ncc21 (centres unmarked) [Compound 27, 4-((9-cyclopentyl-7,7-difluoro-5-methyl-6-oxo-6,7,8,9-tetrahydro-5H-pyrimido[4,5-b][1,4]diazepin-2-yl)amino)-N-(1-(4-((2-(2,6-dioxopiperidin-3-yl)-1,3-dioxoisoindolin-4-yl)amino)butanoyl)piperidin-4-yl)-3-fluorobenzamide] | ++ (++<0.6)
3 | COc1cc(C(=O)NC2CCN(C(=O)CCCNc3ccc4c(c3)C(=O)N(C3CCC(=O)NC3=O)C4=O)CC2)c(F)cc1Nc1ncc2c(n1)N(C1CCCC1)CC(F)(F)C(=O)N2C (centres unmarked) [Compound 35, 4-((9-cyclopentyl-7,7-difluoro-5-methyl-6-oxo-6,7,8,9-tetrahydro-5H-pyrimido[4,5-b][1,4]diazepin-2-yl)amino)-N-(1-(4-((2-(2,6-dioxopiperidin-3-yl)-1,3-dioxoisoindolin-5-yl)amino)butanoyl)piperidin-4-yl)-2-fluoro-5-methoxybenzamide] | + (+<0.7)
4 | COc1cc(C(=O)NC2CCN(CC3CCN(c4cccc5c4C(=O)N(C4CCC(=O)NC4=O)C5=O)C3)CC2)ccc1Nc1ncc2c(n1)N(C1CCCC1)CC(F)(F)C(=O)N2C (centres unmarked) [Compound 46, 4-((9-cyclopentyl-7,7-difluoro-5-methyl-6-oxo-6,7,8,9-tetrahydro-5H-pyrimido[4,5-b][1,4]diazepin-2-yl)amino)-N-(1-((1-(2-(2,6-dioxopiperidin-3-yl)-1,3-dioxoisoindolin-4-yl)pyrrolidin-3-yl)methyl)piperidin-4-yl)-3-methoxybenzamide] | ++ (++<0.6)
5 | COc1cc(C(=O)NC2CCCN(CC3CCN(c4cccc5c4C(=O)N(C4CCC(=O)NC4=O)C5=O)CC3)C2)ccc1Nc1ncc2c(n1)N(C1CCCC1)CC(F)(F)C(=O)N2C (centres unmarked) [Compound 126, 4-((9-cyclopentyl-7,7-difluoro-5-methyl-6-oxo-6,7,8,9-tetrahydro-5H-pyrimido[4,5-b][1,4]diazepin-2-yl)amino)-N-(1-((1-(2-(2,6-dioxopiperidin-3-yl)-1,3-dioxoisoindolin-4-yl)piperidin-4-yl)methyl)piperidin-3-yl)-3-methoxybenzamide] | + (+<0.7)
6 | COc1cc(C(=O)N[C@H]2CC[C@H](OC3CCN(c4ccc5c(c4)C(=O)N(C4CCC(=O)NC4=O)C5=O)CC3)CC2)c(F)cc1Nc1ncc2c(n1)N(C1CCCC1)CC(F)(F)C(=O)N2C (some centres unmarked) [Compound 116, 4-((9-cyclopentyl-7,7-difluoro-5-methyl-6-oxo-6,7,8,9-tetrahydro-5H-pyrimido[4,5-b][1,4]diazepin-2-yl)amino)-N-((1r,4r)-4-((1-(2-(2,6-dioxopiperidin-3-yl)-1,3-dioxoisoindolin-5-yl)piperidin-4-yl)oxy)cyclohexyl)-2-fluoro-5-methoxybenzamide] | ++ (++<0.6)
7 | COc1cc(C(=O)N[C@H]2CC[C@H](N3CCN(CCOCCOc4cccc5c4CN(C4CCC(=O)NC4=O)C5=O)CC3)CC2)ccc1Nc1ncc2c(n1)N(C1CCCC1)CC(F)(F)C(=O)N2C (some centres unmarked) [Compound 198, 4-((9-cyclopentyl-7,7-difluoro-5-methyl-6-oxo-6,7,8,9-tetrahydro-5H-pyrimido[4,5-b][1,4]diazepin-2-yl)amino)-N-((1r,4r)-4-(4-(2-(2-((2-(2,6-dioxopiperidin-3-yl)-1-oxoisoindolin-4-yl)oxy)ethoxy)ethyl)piperazin-1-yl)cyclohexyl)-3-methoxybenzamide] | ++ (++<0.6)

Now from value to compound:

Row | Activity: ratio of the luminescense value of each Exemplary Compound treatment group to DMSO treatment group | SMILES
8 | ++ (++<0.6) | COc1cc(C(=O)NCCOCCOCCOCCNc2cccc3c2C(=O)N(C2CCC(=O)NC2=O)C3=O)c(N2CCN(C)CC2)cc1Nc1ncc2c(n1)N(C1CCCC1)CC(F)(F)C(=O)N2C (centres unmarked) [Compound 223, 4-((9-cyclopentyl-7,7-difluoro-5-methyl-6-oxo-6,7,8,9-tetrahydro-5H-pyrimido[4,5-b][1,4]diazepin-2-yl)amino)-N-(2-(2-(2-(2-((2-(2,6-dioxopiperidin-3-yl)-1,3-dioxoisoindolin-4-yl)amino)ethoxy)ethoxy)ethoxy)ethyl)-5-methoxy-2-(4-methylpiperazin-1-yl)benzamide]
9 | + (+<0.7) | COc1cc(C(=O)NN2CCN(C3CN(c4cccc5c4C(=O)N(C4CCC(=O)NC4=O)C5=O)C3)CC2)ccc1Nc1ncc2c(n1)N(C1CCCC1)CC(F)(F)C(=O)N2C (centres unmarked) [Compound 200, 4-((9-cyclopentyl-7,7-difluoro-5-methyl-6-oxo-6,7,8,9-tetrahydro-5H-pyrimido[4,5-b][1,4]diazepin-2-yl)amino)-N-(4-(1-(2-(2,6-dioxopiperidin-3-yl)-1,3-dioxoisoindolin-4-yl)azetidin-3-yl)piperazin-1-yl)-3-methoxybenzamide]
10 | ++ (++<0.6) | COc1cc(C(=O)NC2CCN(CCSc3cccc4c3C(=O)N(C3CCC(=O)NC3=O)C4=O)CC2)c(F)cc1Nc1ncc2c(n1)N(C1CCCC1)CC(F)(F)C(=O)N2C (centres unmarked) [Compound 11, 4-((9-cyclopentyl-7,7-difluoro-5-methyl-6-oxo-6,7,8,9-tetrahydro-5H-pyrimido[4,5-b][1,4]diazepin-2-yl)amino)-N-(1-(2-((2-(2,6-dioxopiperidin-3-yl)-1,3-dioxoisoindolin-4-yl)thio)ethyl)piperidin-4-yl)-2-fluoro-5-methoxybenzamide]
11 | ++ (++<0.6) | COc1cc(C(=O)NC2CCN(C(=O)CCCCN3CCN(c4cccc5c4C(=O)N(C4CCC(=O)NC4=O)C5=O)CC3)CC2)ccc1Nc1ncc2c(n1)N(C1CCCC1)CC(F)(F)C(=O)N2C (centres unmarked) [Compound 65, 4-((9-cyclopentyl-7,7-difluoro-5-methyl-6-oxo-6,7,8,9-tetrahydro-5H-pyrimido[4,5-b][1,4]diazepin-2-yl)amino)-N-(1-(5-(4-(2-(2,6-dioxopiperidin-3-yl)-1,3-dioxoisoindolin-4-yl)piperazin-1-yl)pentanoyl)piperidin-4-yl)-3-methoxybenzamide]
12 | + (+<0.7) | COc1cc(C(=O)N2CCN(CCCNc3cccc4c3C(=O)N(C3CCC(=O)NC3=O)C4=O)CC2)c(F)cc1Nc1ncc2c(n1)N(C1CCCC1)CC(F)(F)C(=O)N2C (centres unmarked) [Compound 183, 4-((3-(4-(4-((9-cyclopentyl-7,7-difluoro-5-methyl-6-oxo-6,7,8,9-tetrahydro-5H-pyrimido[4,5-b][1,4]diazepin-2-yl)amino)-2-fluoro-5-methoxybenzoyl)piperazin-1-yl)propyl)amino)-2-(2,6-dioxopiperidin-3-yl)isoindoline-1,3-dione]
13 | ++ (++<0.6) | COc1cc(C(=O)N2CCC(N3CCN(CCOCCNc4cccc5c4C(=O)N(C4CCC(=O)NC4=O)C5=O)CC3)CC2)c(F)cc1Nc1ncc2c(n1)N(C1CCCC1)CC(F)(F)C(=O)N2C (centres unmarked) [Compound 189, 4-((2-(2-(4-(1-(4-((9-cyclopentyl-7,7-difluoro-5-methyl-6-oxo-6,7,8,9-tetrahydro-5H-pyrimido[4,5-b][1,4]diazepin-2-yl)amino)-2-fluoro-5-methoxybenzoyl)piperidin-4-yl)piperazin-1-yl)ethoxy)ethyl)amino)-2-(2,6-dioxopiperidin-3-yl)isoindoline-1,3-dione]
14 | ++ (++<0.6) | COc1cc(C(=O)N2CCC(CCCN3CCN(c4cccc5c4C(=O)N(C4CCC(=O)NC4=O)C5=O)CC3)CC2)ccc1Nc1ncc2c(n1)N(C1CCCC1)CC(F)(F)C(=O)N2C (centres unmarked) [Compound 95, 4-(4-(3-(1-(4-((9-cyclopentyl-7,7-difluoro-5-methyl-6-oxo-6,7,8,9-tetrahydro-5H-pyrimido[4,5-b][1,4]diazepin-2-yl)amino)-3-methoxybenzoyl)piperidin-4-yl)propyl)piperazin-1-yl)-2-(2,6-dioxopiperidin-3-yl)isoindoline-1,3-dione]
